Reference: publication doi:10.1101/2023.07.10.548257 (bioRxiv, 2024)

Target: T1, full-length SHP2^R138Q (Homo sapiens, UniProt Q06124, R138Q)
T1 construct: Full-length SHP2 constructs were diluted in assay buffer; His6-TEV (N, cleaved yes); made in house; host or cells: E. coli BL21(DE3)
T1 sequence (Q06124 1-593 R138Q): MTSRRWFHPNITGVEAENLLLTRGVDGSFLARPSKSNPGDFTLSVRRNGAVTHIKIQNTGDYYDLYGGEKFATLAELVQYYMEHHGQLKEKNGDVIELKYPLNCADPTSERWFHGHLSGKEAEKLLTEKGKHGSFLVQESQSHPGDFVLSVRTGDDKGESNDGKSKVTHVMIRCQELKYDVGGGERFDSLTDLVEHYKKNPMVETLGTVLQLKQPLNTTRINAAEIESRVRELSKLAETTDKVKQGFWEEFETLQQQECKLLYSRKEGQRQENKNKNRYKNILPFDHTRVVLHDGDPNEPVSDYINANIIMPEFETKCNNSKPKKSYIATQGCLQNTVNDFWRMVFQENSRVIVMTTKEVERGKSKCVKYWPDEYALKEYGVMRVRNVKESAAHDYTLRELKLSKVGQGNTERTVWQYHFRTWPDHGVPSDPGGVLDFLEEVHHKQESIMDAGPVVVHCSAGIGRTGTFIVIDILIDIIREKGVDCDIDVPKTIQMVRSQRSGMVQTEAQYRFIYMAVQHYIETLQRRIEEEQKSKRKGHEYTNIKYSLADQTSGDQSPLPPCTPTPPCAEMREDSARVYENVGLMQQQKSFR
Experiment: SHP2 activation assay using phosphopeptides (DiFMUP), SHP2 R138Q
Format: biochemical
Conditions: activation of full-length SHP2 R138Q (0.05 nM) by phosphopeptide; DiFMUP substrate; HEPES pH 7.2 assay buffer; mean of N (column N)
Description: Emitted fluorescence at 455nm was recorded every 25 seconds in a span of 50 minutes using a BioTek Synergy Neo2 multi-mode reader. […]
In all cases, the linear region of the reaction progress curve was determined by visual inspection and fit to a line. These slopes were converted from absorbance or fluorescence units as a function of time to product formation as a function of time using standard curves measured with the reaction products (p-nitrophenol and 6,8-difluoro-7-hydroxy-4-methylcoumarin). […]
SHP2 activation assays using phosphopeptides
Full-length SHP2 constructs were diluted in assay buffer (60 mM HEPES pH 7.2, 75 mM KCl, 75 mM NaCl,1 mM EDTA, 0.05% Tween-20, with 0.5 mM TCEP freshly added) to a 2X concentration of 0.1 nM. Peptides were serially diluted in assay buffer, with the last point of the concentration series fully without peptide. 15 μL of peptide and 15 μL of 800 μM DiFMUP was added to a black 96-well half area plate. Right before starting the plate reader assay, 30 μL SHP2 was added to each well a Supplementary Information - page 4 of 18 […]
final concentration of 0.05nM. Kinetic measurements (Ex 358/Em […]) were taken on a BioTek Neo2 plate reader every 25 seconds for 6 minutes.
Cloning of the PD-1 ITIM scanning mutagenesis library […]
described previously for other peptide display libraries in the eCPX system (2, 4). A series of oligonucleotides spanning the peptide-coding sequence was synthesized with a different NNS codon in place of each wild-type codon (11 oligonucleotides in total). These degenerate primers were pooled then used to amplify a library of linear DNA encoding mutant ITIM fusions to the eCPX scaffold protein.
This library was then cloned into the pBAD33 vector used for surface display.
SH2 specificity profiling using bacterial peptide display
Preparation of bacterial cells
Electrocompetent MC1061 cells were transformed with ~100 ng of the respective library. After 1 hour recovery in 1 mL LB, cells were further diluted into 250 mL LB + 0.1% chloramphenicol. 1.8 mL of overnight culture was used to inoculate 100 mL LB + 0.1% chloramphenicol, and grown until OD600 reached 0.5. 20 mL of cell suspension was induced at 25 °C using a final concentration of 0.4% arabinose until the OD600 ~ 1 (after approximately 4 hours). The cells were spun down at 4000 rpm for 15 minutes, and the pellet was resuspended in PBS so that the OD600 ~1.5. The cells were stored in the fridge and used within a week.
For each sample, 75 μL of Dynabeads™ FlowComp™ Flexi Kit were washed twice in 1 mL SH2 buffer (50 mM HEPES pH 7.5, 150 mM NaCl, 1 mM TCEP, and 0.2% BSA) on a magnetic rack.
The beads were then resuspended in 75 μL of SH2 buffer. SH2 domains were thawed quickly and 20 μM of protein was added to the beads. SH2 buffer was added up to 150 μL, and the suspension was incubated for 1 hour at 4 °C while rotating. After 1 hour, the suspension was placed on a magnetic rack and washed twice with 1 mL SH2 buffer.
Preparing the phosphorylated cells
150 μL of prepared cells per sample were spun down for 4000 rpm for 5 minutes at 4 °C.
Kinase screen buffer was prepared (50 mM Tris, 10 mM magnesium chloride, 150 mM sodium chloride; add 2 mM sodium orthovanadate and 1 mM TCEP fresh) and the cells of each sample were resuspended in 100 μL kinase screen buffer. Kinases c-Src, c-Abl, AncSZ, Eph1B were added to a final concentration of 2.5 µM each, creatine phosphate was added to a final concentration of 5 mM, and phosphokinase was added to a final concentration of 50 µg/mL. The suspension was incubated at 37 °C for 5 minutes before ATP was added to a final concentration of 1 mM. This mixture was incubated at 37 °C for 3 hours. After 3 hours, EDTA was added to a final concentration of 25 mM to quench the reaction. The input library control sample was not phosphorylated. These cells were spun down at 4000 rpm for 15 minutes at 4 °C. The cells were then resuspended in 100 µL of SH2 buffer […]

SMILES | EC50
CC[C@H](C)[C@H](NC(=O)[C@@H](NC(=O)[C@H](C)NC(=O)[C@H](Cc1ccc(OP(=O)(O)O)cc1)NC(=O)[C@@H](NC(=O)[C@@H]1CCCN1C(=O)[C@H](CCC(=O)O)NC(=O)[C@@H]1CCCN1C(=O)[C@H](CO)NC(=O)[C@@H](NC(C)=O)C(C)C)[C@@H](C)CC)[C@@H](C)O)C(=O)N[C@@H](CC(=O)O)C(=O)N[C@@H](CC(=O)O)C(=O)N[C@@H](CC(C)C)C(N)=O | 27.3 µM
CC(=O)N[C@@H](CO)C(=O)N[C@H](C(=O)NCC(=O)N[C@@H](CO)C(=O)N[C@H](C(=O)N[C@@H](CC(=O)O)C(=O)N[C@@H](Cc1ccc(OP(=O)(O)O)cc1)C(=O)N[C@@H](CC(C)C)C(=O)N[C@@H](C)C(=O)N[C@@H](CC(C)C)C(=O)N[C@@H](CC(=O)O)C(=O)N[C@@H](Cc1ccccc1)C(=O)N[C@@H](CCC(N)=O)C(N)=O)C(C)C)[C@@H](C)O | 5.98 µM
CC[C@H](C)[C@H](NC(=O)[C@H](Cc1ccc(OP(=O)(O)O)cc1)NC(=O)[C@H](CC(N)=O)NC(=O)[C@H](CC(C)C)NC(=O)CNC(=O)[C@H](CC(N)=O)NC(=O)[C@H](CCC(=O)O)NC(=O)[C@H](CC(C)C)NC(C)=O)C(=O)N[C@@H](CC(=O)O)C(=O)N[C@@H](CC(C)C)C(=O)N[C@@H](CC(=O)O)C(=O)N[C@@H](CC(C)C)C(=O)N[C@H](C(N)=O)C(C)C | 1.43 µM
CC[C@H](C)[C@H](NC(=O)[C@H](CC(N)=O)NC(=O)[C@@H](NC(=O)[C@H](Cc1ccc(OP(=O)(O)O)cc1)NC(=O)[C@H](CCC(=O)O)NC(=O)CNC(=O)[C@@H]1CCCN1C(=O)[C@H](CO)NC(=O)[C@H](CCCCN)NC(=O)[C@@H]1CCCN1C(C)=O)C(C)C)C(=O)N[C@@H](CCC(=O)O)C(=O)N[C@@H](Cc1ccccc1)C(=O)NCC(N)=O | 29.6 µM
CSCC[C@H](NC(=O)[C@H](CC(C)C)NC(=O)[C@H](CCC(N)=O)NC(=O)[C@H](C)NC(=O)[C@H](Cc1ccc(OP(=O)(O)O)cc1)NC(=O)[C@H](CC(N)=O)NC(=O)[C@H](CC(C)C)NC(=O)[C@H](C)NC(=O)[C@H](C)NC(=O)[C@H](CCCCN)NC(=O)[C@H](CCCCN)NC(C)=O)C(=O)N[C@@H](Cc1ccccc1)C(=O)N1CCC[C@H]1C(N)=O | 4.2 µM
CC(=O)N[C@@H](C)C(=O)N[C@@H](CCCCN)C(=O)N[C@@H](CO)C(=O)NCC(=O)N[C@@H](C)C(=O)N[C@H](C(=O)N[C@@H](Cc1ccc(OP(=O)(O)O)cc1)C(=O)N[C@@H](CO)C(=O)N[C@@H](CCC(=O)O)C(=O)N[C@@H](CC(C)C)C(=O)N[C@@H](CC(N)=O)C(=O)N[C@@H](Cc1ccccc1)C(=O)NCC(N)=O)C(C)C | 166 µM
CC(=O)N1CCC[C@H]1C(=O)N[C@H](C(=O)N[C@@H](Cc1ccccc1)C(=O)N[C@@H](CO)C(=O)N[C@H](C(=O)N[C@@H](CC(=O)O)C(=O)N[C@@H](Cc1ccc(OP(=O)(O)O)cc1)C(=O)NCC(=O)N[C@@H](CCC(=O)O)C(=O)N[C@@H](CC(C)C)C(=O)N[C@@H](CC(=O)O)C(=O)N[C@@H](Cc1ccccc1)C(=O)N[C@@H](CCC(N)=O)C(N)=O)C(C)C)C(C)C | 6.55 µM
CC[C@H](C)[C@H](NC(=O)[C@@H](NC(=O)[C@H](C)NC(=O)[C@H](Cc1ccc(OP(=O)(O)O)cc1)NC(=O)[C@H](CCC(=O)O)NC(=O)[C@@H](NC(=O)[C@H](CCC(N)=O)NC(=O)[C@H](CCC(=O)O)NC(=O)[C@@H]1CCCN1C(=O)[C@@H](NC(C)=O)C(C)C)[C@@H](C)O)[C@@H](C)O)C(=O)N[C@H](C(=O)N[C@@H](Cc1ccccc1)C(=O)N1CCC[C@H]1C(N)=O)C(C)C | 6.26 µM
CC[C@H](C)[C@H](NC(=O)[C@H](CC(=O)O)NC(=O)[C@H](C)NC(=O)[C@H](Cc1ccc(OP(=O)(O)O)cc1)NC(=O)[C@H](CCCCN)NC(=O)[C@@H](NC(=O)[C@H](CC(=O)O)NC(=O)CNC(=O)[C@H](CCCCN)NC(=O)[C@H](CCSC)NC(C)=O)C(C)C)C(=O)N[C@@H](CCC(=O)O)C(=O)N[C@@H](CO)C(=O)N[C@@H](CO)C(N)=O | 120 µM
